The text below walks through data of publication PMC12090182, “Repurposing of the RIPK1-Selective Benzo[1,4]oxazepin-4-one Scaffold for the Development of a Type III LIMK1/2 Inhibitor” (ACS Chemical Biology, 2025).

The target in test [1] is ABL1(M351T)-phosphorylated (Homo sapiens, UniProt P00519, M351T). Kind of test: biochemical. It is filed as binding. To be noted: compound concentration 100 nM; Entrez ABL1; read-out: Percent Control.
For test [2], the target named is T1, EGFR(L747-S752del, P753S) (Homo sapiens, UniProt P00533, DEL747-752/P753S). Put plainly: biochemical. In kind it is binding. To be noted: read-out: Percent Control.
T1 sequence (P00533 other isoform, or with tags, fused parts or gaps DEL747-752/P753S): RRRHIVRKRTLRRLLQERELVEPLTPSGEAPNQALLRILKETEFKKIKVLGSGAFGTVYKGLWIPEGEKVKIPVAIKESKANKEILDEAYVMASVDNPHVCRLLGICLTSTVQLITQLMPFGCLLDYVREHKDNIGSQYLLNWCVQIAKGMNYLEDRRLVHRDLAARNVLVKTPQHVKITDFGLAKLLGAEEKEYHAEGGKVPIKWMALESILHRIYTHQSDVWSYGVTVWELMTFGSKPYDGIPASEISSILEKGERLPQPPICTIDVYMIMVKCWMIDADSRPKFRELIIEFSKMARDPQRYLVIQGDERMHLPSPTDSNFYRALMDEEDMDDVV
Test [3] addresses T1, EGFR(L747-S752del, P753S). Kind of test: biochemical. In kind it is binding. The settings on record: compound concentration 100 nM; Entrez EGFR; read-out: Percent Control.
A further test has as its target MET(Y1235D) (Homo sapiens, UniProt P08581, Y1235D). Kind of test: biochemical. In kind it is binding. The settings on record: 1000 nM, read-out: Percent Control.
The target in another test is KIT(V559D,T670I) (Homo sapiens, UniProt P10721, T670I/V559D). Put plainly: biochemical. In kind it is binding. To be noted: compound concentration 100 nM; Entrez KIT; read-out: Percent Control.
Chain of KIT(V559D,T670I) (P10721 26-976 V559D/T670I): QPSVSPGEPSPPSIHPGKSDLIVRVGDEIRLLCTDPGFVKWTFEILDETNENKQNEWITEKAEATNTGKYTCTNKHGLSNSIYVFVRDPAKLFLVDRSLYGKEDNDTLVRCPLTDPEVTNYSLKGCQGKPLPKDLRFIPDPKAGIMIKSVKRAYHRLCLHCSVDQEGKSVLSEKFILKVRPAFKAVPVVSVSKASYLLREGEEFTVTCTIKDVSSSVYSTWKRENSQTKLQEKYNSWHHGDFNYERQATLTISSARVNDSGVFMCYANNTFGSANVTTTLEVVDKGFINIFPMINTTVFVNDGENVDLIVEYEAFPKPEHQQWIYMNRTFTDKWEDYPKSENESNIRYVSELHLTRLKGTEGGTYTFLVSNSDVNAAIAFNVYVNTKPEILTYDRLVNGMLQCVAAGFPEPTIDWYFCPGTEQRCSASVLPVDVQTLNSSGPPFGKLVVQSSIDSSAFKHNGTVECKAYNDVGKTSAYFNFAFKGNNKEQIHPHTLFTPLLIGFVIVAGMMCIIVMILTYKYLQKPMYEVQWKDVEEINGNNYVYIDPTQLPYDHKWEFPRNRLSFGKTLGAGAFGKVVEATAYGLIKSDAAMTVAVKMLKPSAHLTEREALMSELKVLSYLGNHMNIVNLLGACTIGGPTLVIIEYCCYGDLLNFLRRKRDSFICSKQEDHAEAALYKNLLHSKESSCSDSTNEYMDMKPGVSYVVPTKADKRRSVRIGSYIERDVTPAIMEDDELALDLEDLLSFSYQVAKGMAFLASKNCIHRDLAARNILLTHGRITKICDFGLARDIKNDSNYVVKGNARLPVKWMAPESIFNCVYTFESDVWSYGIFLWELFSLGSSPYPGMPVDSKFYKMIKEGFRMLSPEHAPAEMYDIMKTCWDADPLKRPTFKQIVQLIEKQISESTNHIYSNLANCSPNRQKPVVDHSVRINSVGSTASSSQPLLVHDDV
In another test the target is PIK3CA(E542K) (Homo sapiens, UniProt P42336, E542K). Kind of test: biochemical. It is filed as binding. To be noted: read-out: Percent Control.
Test [4] has as its target T2, EGFR(T790M) (Homo sapiens, UniProt P00533, T790M). Kind of test: biochemical. It is filed as binding. The settings on record: 1000 nM, read-out: Percent Control.
The target in the next test is EGFR(G719C) (Homo sapiens, UniProt P00533, G719C). Put plainly: biochemical. To be noted: 1000 nM, read-out: Percent Control. It is filed as binding.
For a further test, the target named is BRAF(V600E) (Homo sapiens, UniProt P15056, V600E). Kind of test: cell-based. To be noted: HEK-293T; 1 μM inhibitor, HEK293T cells.
Chain of BRAF(V600E) (P15056 whole entry V600E): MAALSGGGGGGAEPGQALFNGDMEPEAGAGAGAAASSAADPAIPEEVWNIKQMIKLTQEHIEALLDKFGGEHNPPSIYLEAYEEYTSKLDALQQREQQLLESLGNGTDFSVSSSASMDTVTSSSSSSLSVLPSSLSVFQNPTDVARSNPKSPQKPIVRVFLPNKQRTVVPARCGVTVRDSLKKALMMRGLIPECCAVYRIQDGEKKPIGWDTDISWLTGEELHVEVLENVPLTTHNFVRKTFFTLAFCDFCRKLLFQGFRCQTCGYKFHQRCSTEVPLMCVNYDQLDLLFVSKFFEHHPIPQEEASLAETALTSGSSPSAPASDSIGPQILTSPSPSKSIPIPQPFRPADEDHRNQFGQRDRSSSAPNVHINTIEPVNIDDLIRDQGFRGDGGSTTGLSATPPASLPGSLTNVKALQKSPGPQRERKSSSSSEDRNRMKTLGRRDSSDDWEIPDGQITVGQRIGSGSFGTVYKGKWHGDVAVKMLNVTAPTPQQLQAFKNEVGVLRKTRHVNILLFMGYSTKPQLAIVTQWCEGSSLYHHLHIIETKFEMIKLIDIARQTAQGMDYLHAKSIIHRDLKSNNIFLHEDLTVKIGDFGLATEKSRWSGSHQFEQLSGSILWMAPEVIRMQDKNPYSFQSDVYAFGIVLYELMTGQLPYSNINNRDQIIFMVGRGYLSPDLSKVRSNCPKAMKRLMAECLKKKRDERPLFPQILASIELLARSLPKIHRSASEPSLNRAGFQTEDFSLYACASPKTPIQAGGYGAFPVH
Test [5] relates to FLT3(ITD,F691L). In kind it is binding. The settings on record: compound concentration 100 nM; Entrez FLT3.
For test [6], the target named is ABL1(F317I)-nonphosphorylated (Homo sapiens, UniProt P00519, F317I). Put plainly: biochemical. It is filed as binding. To be noted: read-out: Percent Control.
A further test addresses RET(M918T) (Homo sapiens, UniProt P07949, M918T). Put plainly: biochemical. In kind it is binding. The settings on record: 1000 nM, read-out: Percent Control.
The target of a further test is JAK2 (V617F) (Homo sapiens, UniProt O60674, V617F). Kind of test: cell-based. The settings on record: HEK-293T; 1 μM inhibitor, HEK293T cells.
Chain of JAK2 (V617F) (O60674 whole entry V617F): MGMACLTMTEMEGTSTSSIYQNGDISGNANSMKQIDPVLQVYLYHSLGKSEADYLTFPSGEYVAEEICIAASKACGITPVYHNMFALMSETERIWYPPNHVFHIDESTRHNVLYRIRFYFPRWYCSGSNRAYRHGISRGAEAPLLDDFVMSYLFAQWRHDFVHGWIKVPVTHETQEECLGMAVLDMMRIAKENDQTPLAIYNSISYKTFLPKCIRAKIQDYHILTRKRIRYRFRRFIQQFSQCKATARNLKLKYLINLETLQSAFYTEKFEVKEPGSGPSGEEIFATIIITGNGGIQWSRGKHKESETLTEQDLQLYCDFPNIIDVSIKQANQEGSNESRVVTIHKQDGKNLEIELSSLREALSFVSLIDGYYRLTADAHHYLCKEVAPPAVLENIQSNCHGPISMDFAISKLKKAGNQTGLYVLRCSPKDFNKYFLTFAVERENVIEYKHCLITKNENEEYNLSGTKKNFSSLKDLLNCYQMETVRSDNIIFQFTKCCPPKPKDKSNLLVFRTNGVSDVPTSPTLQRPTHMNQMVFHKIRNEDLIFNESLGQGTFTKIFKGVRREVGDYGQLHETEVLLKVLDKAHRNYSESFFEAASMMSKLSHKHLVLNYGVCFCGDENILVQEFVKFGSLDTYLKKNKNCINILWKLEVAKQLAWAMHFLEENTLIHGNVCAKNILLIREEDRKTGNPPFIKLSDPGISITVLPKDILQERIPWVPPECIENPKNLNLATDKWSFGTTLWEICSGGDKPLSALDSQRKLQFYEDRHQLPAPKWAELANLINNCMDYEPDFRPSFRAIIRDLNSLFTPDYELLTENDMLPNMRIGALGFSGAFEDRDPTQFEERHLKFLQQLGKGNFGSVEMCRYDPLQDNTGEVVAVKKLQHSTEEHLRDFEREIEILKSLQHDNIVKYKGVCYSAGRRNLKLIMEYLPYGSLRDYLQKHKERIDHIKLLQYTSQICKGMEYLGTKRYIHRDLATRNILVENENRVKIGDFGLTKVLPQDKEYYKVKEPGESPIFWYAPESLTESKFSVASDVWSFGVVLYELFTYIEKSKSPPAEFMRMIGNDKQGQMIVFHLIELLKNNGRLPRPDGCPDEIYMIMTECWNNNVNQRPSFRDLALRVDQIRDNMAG
Another test has as its target FLT3(K663Q) (Homo sapiens, UniProt P36888, K663Q). Kind of test: biochemical. To be noted: compound concentration 100 nM; Entrez FLT3; read-out: Percent Control. It is filed as binding.
The target of a further test is EGFR(L861Q) (Homo sapiens, UniProt P00533, L861Q). Kind of test: biochemical. The settings on record: 1000 nM, read-out: Percent Control. It is filed as binding.
The target in test [7] is ABL1(F317L)-phosphorylated (Homo sapiens, UniProt P00519, F317L). Kind of test: biochemical. To be noted: compound concentration 100 nM; Entrez ABL1; read-out: Percent Control. In kind it is binding.
Test [8] has as its target ABL1(Q252H)-phosphorylated (Homo sapiens, UniProt P00519, Q252H). Put plainly: biochemical. In kind it is binding. To be noted: read-out: Percent Control.
Test [9] deals with ABL1(T315I)-nonphosphorylated (Homo sapiens, UniProt P00519, T315I). Kind of test: biochemical. It is filed as binding. The settings on record: read-out: Percent Control.
Another test has as its target RET(V804L) (Homo sapiens, UniProt P07949, V804L). Kind of test: biochemical. It is filed as binding. The settings on record: compound concentration 100 nM; Entrez RET; read-out: Percent Control.
A further test has as its target FLT3(D835H) (Homo sapiens, UniProt P36888, D835H). Put plainly: biochemical. It is filed as binding. To be noted: compound concentration 100 nM; Entrez FLT3; read-out: Percent Control.
Test [10] concerns FLT3(ITD,F691L). In kind it is binding. To be noted: 1000 nM.
Test [11] deals with T3, ABL1(T315I)-phosphorylated (Homo sapiens, UniProt P00519, T315I). Kind of test: biochemical. It is filed as binding. To be noted: read-out: Percent Control.
Test [12] deals with ABL1(E255K)-phosphorylated (Homo sapiens, UniProt P00519, E255K). Kind of test: biochemical. In kind it is binding. The settings on record: read-out: Percent Control.
In a further test the target is BTK2 (Homo sapiens, UniProt Q06187). Kind of test: scanMAX KINOMEscan (Eurofins). In kind it is binding.
Chain of BTK2 (Q06187 whole entry): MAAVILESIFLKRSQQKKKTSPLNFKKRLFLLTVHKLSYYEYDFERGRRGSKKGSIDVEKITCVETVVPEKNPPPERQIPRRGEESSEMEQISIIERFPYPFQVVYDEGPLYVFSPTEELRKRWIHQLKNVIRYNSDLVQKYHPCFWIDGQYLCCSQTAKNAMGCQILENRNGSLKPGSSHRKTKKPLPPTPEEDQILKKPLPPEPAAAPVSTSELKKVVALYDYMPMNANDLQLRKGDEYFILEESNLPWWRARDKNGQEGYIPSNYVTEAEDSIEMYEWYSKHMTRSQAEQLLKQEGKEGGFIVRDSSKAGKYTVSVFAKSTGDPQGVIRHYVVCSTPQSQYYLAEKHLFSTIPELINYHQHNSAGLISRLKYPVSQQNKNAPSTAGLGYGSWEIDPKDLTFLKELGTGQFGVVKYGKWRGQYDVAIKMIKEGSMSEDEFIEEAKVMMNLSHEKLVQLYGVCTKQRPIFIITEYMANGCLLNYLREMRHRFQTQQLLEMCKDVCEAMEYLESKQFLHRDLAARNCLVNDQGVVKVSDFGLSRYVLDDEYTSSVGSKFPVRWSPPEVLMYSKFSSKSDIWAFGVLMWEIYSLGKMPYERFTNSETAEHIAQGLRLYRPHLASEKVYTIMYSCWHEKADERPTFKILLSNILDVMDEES
Test [13] has as its target T3, ABL1(T315I)-phosphorylated. Put plainly: biochemical. It is filed as binding. The settings on record: compound concentration 100 nM; Entrez ABL1; read-out: Percent Control.
Test [14] has as its target ABL1(H396P)-phosphorylated (Homo sapiens, UniProt P00519, H396P). Put plainly: biochemical. In kind it is binding. The settings on record: read-out: Percent Control.
Another test concerns FLT3(ITD,D835V). It is filed as binding. The settings on record: 1000 nM.
The next test concerns the target MET(M1250T) (Homo sapiens, UniProt P08581, M1250T). Kind of test: biochemical. It is filed as binding. To be noted: 1000 nM, read-out: Percent Control.
A further test addresses PIK3CA(E545A) (Homo sapiens, UniProt P42336, E545A). Kind of test: biochemical. It is filed as binding. The settings on record: compound concentration 100 nM; Entrez PIK3CA; read-out: Percent Control.
The next test deals with FLT3(D835V) (Homo sapiens, UniProt P36888, D835V). Put plainly: biochemical. The settings on record: 1000 nM, read-out: Percent Control. It is filed as binding.
The target in test [15] is T2, EGFR(T790M). Put plainly: biochemical. It is filed as binding. To be noted: compound concentration 100 nM; Entrez EGFR; read-out: Percent Control.
The next test deals with LIMK2 (Homo sapiens, UniProt P53671). Kind of test: Differential scanning fluorimetry assay for LIMK1/2. In kind it is binding. The settings on record: LIMK2, 10 μM compound. (In general: DSF heats the sample and reads unfolding from a dye or from intrinsic fluorescence.)
Another test deals with LIMK1 (Homo sapiens, UniProt P53667). The description is as above. It is filed as binding. The settings on record: LIMK1, 10 μM compound.

Where two headings read alike, the source gives them in different places.

T2 sequence (P00533 25-1210 T790M): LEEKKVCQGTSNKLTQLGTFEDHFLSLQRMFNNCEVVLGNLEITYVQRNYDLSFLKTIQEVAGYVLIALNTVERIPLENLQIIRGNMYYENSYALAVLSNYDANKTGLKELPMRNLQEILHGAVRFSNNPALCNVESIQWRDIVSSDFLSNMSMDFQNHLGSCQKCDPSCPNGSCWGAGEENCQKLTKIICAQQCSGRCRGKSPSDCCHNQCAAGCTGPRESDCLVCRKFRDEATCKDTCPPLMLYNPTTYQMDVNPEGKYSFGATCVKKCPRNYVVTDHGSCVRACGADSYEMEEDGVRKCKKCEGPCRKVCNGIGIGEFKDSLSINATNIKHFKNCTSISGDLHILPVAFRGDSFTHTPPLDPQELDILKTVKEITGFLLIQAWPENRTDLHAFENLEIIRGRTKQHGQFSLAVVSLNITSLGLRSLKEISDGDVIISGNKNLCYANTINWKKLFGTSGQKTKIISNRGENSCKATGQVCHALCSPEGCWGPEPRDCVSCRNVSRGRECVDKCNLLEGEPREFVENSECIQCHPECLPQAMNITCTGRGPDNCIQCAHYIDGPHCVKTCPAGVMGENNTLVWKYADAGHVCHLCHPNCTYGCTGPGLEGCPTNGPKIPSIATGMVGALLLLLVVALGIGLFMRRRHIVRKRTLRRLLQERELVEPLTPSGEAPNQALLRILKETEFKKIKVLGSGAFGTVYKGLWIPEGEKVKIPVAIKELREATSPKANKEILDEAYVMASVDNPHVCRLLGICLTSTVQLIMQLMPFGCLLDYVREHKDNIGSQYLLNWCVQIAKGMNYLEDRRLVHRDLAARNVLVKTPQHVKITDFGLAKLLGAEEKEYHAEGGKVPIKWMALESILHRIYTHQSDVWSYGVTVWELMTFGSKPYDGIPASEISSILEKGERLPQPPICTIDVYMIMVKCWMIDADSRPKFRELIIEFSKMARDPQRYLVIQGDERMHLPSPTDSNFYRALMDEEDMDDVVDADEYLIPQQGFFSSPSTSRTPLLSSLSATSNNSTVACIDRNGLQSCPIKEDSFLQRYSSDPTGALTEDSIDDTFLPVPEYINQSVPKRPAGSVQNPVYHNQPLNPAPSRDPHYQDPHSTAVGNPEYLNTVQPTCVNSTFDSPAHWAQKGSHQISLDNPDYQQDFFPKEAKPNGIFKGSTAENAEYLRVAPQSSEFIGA
Method for LIMK2: The assay was performed according to a previously established protocol. […] The compounds to be tested were added to a final concentration of 10 μM. […] Data were analyzed with MxPro software.

For `CN1C(=O)[C@@H](N2CCc3c(nn(Cc4ccccc4)c3C(N)=O)C2=O)COc2cc(Cl)ccc21` [Compound 10, (S)-2-benzyl-6-(8-chloro-5-methyl-4-oxo-2,3,4,5-tetrahydrobenzo[b][1,4]oxazepin-3-yl)-7-oxo-4,5,6,7-tetrahydro-2H-pyrazolo[3,4-c]pyridine-3-carboxamide], the remaining activity at 0.1 µM was 92% in test [1]; 97% in test [3]; 92% at KIT(V559D,T670I); 100% at FLT3(K663Q); 100% in test [7]; 84% on RET(V804L). For the same compound, the remaining activity at 0.1 µM at FLT3(D835H) stood at 84%; in test [13], 72%; on PIK3CA(E545A) it was 92%; on EGFR(T790M) [15], 100%. In addition, the remaining activity at 1 µM was determined as 100% in test [2]; 93% on MET(Y1235D); 94% on PIK3CA(E542K); 100% at EGFR(T790M) [4]; 86% at EGFR(G719C); 69% in [6]. Moreover, the remaining activity at 1 µM on RET(M918T) is 96%; on EGFR(L861Q), 88%; in [8] it was 78%; in test [9], 73%; in test [11] it was 99%; in [12], 94%. Further, the remaining activity at 1 µM in test [14] worked out at 88%; at MET(M1250T), 83%; at FLT3(D835V), 56%. Also, the receptor occupancy at 1 µM on BRAF(V600E) was -9.8%; on JAK2 (V617F) it was 2.27%. Moreover, the “Percent Control” value in the test with FLT3(ITD,F691L) [5] is on record as 100; with FLT3(ITD,F691L) [10], 100%; in the test on FLT3(ITD,D835V), 81%. For the same compound, the remaining binding at 1 µM was determined as 55% at BTK2 (BTK2, 1 μM, read-out: POC (Top Hits @ 1 μM)) and 55% at BTK2 (BTK, 1000 nM, read-out: Percent Control). On BTK2 (BTK (Entrez BTK), 100 nM, read-out: Percent Control), the remaining binding at 0.1 µM was determined as 62%.

On to `CN1C(=O)[C@@H](N2CCc3c(C(N)=O)nn(Cc4ccccc4)c3C2=O)COc2ccccc21` [Compound 11], for which the “ΔTM (stabilization in the DSF assay)” value on LIMK2 and at LIMK1 was “inactive” each time.
